System: human iPSC-derived astrocytes (homozygous ApoE 3 or homozygous ApoE4 genotype)
Test: Oxygen consumption (Seahorse XF96), FCCP-uncoupled maximal respiration
Format: cell-based
Conditions: hiPSC-derived astrocytes, ApoE3 (FIG. 6) and ApoE4 (FIG. 7); NR 0.5 mM for 24 hours; BHB 0.5 mM or 2 mM or BHP 2 mM for 1 h; FCCP 1 μM
Procedure: Differentiated human iPSC-derived astrocytes with either a homozygous ApoE 3 genotype or homozygous ApoE4 genotype (and otherwise isogenic) were obtained from Cellular Dynamics International (CDI, Madison, WI, USA). The cells were thawed according to the manufacturer's instructions. Astrocytes were cultured in DMEM supplemented with 10% fetal calf serum and N2 complement. Oxygen consumption in human iPSC-derived astrocytes was measured in a Seahorse XF96 instrument (Seahorse Bioscience, North Billerica, MA, USA). Astrocytes were seeded directly into Seahorse 96-well tissue culture plates (XF96 FluxPaks no. 102416-100; Seahorse Bioscience) at a density of 40,000 cells per well. Cells were incubated for 24 hours with 0.5 mM of Nicotinamide riboside chloride (NR) or fresh medium before experiment. Four days after seeding, the cells were washed twice in KRBH containing 1 mM glucose and incubated for 1 h with the ketone bodies BHB (racemic (D,L) BHB) or BHP (D BHP) at the concentration indicated. The cells were maintained at 37° C. during the experiment. Mitochondrial respiration rates were determined every 6 minutes. […] The oxygen consumption rate in hiPSC-derived astrocytes was measured as an indication of mitochondrial function, using a Seahorse instrument. Through addition of the uncoupling agent FCCP, uncoupled (=maximal) respiration was determined.

NC(=O)c1ccc[n+]([C@@H]2O[C@H](CO)[C@@H](O)[C@H]2O)c1 [NR, Nicotinamide riboside chloride]
maximal respiration (uncoupled oxygen consumption rate): Neither ketone bodies alone nor NR treatment significantly increases maximal respiration

Reference: US20250134918A1, “COMPOSITIONS AND METHODS USING A NICOTINAMIDE ADENINE DINUCLEOTIDE (NAD+) PRECURSOR AND AT LEAST ONE KETONE OR KETONE PRECURSOR” (SOCIETE DES PRODUITS NESTLE S.A., priority 2018, published 2025)
